# Active and inactive are the calls of the source. The rule behind the calls is not given here.
# What was measured:
# [1] = target: MAP kinase p38 (Mus musculus) (UniProt P47811+O08911+Q9WUI1+Q9Z1B7); test: Inhibition of RANKL-induced p38 phosphorylation in mouse […] cells at 10 uM pretreated for 4 hrs followed by RANKL stimulation measured for 60 mins by Western blot method; type: cell-based
# [2] = (§1) Inhibition of RANKL-induced C57BL/6 mouse bone marrow monocytes differentiation into osteoclasts after 6 days in presence of M-CSF by tartrate-resistant acid phosphatase staining based assay; type: functional, cell-based; details: C57BL/6, Bone marrow monocyte, 144 h
# Bone marrow monocyte [3] = test: as §1; type: functional, cell-based
# Bone marrow monocyte [4] = test: Inhibition of RANKL-induced TRAP mRNA expression in C57BL/6 mouse bone marrow monocytes measured after 5 days in presence of M-CSF by SYBR green-dye based qRT-PCR analysis; type: functional, cell-based
# Mus musculus [5] = test: Inhibition of ovariectomized-induced osteoclast activity in C57BL/6 mouse femur at 5 mg/kg, ip administered for 60 days by tartrate-resistant acid phosphatase staining; type: functional, organism-based
# Bone marrow monocyte [6] = test: Inhibition of RANKL-induced C-src mRNA expression in C57BL/6 mouse bone marrow monocytes measured after 5 days in presence of M-CSF by SYBR green-dye based qRT-PCR analysis; type: functional, cell-based
# Mus musculus [7] = test: Protection against ovariectomized-induced osteoporosis in C57BL/6 mouse assessed as increase in ratio of bone volume to tissue volume of femur at 20 mg/kg, ip administered for 60 days by micro computed tomography; type: functional, organism-based
# [8] = Inhibition of RANKL-induced C57BL/6 mouse bone marrow monocytes differentiation into osteoclasts at 0.5 uM after 6 days in presence of M-CSF by tartrate-resistant acid phosphatase staining based assay relative to control; type: functional; details: C57BL/6, Bone marrow monocyte, 144 h
# [9] = Selectivity index, ratio of IC50 for C57BL/6 mouse bone marrow monocytes to IC50 for RANKL-induced C57BL/6 mouse bone marrow monocytes differentiation into osteoclasts; set-up: species or system Bone marrow monocyte
# Bone marrow monocyte [10] = test: Inhibition of RANKL-induced NFATc1 mRNA expression in C57BL/6 mouse bone marrow monocytes measured after 5 days in presence of M-CSF by SYBR green-dye based qRT-PCR analysis; type: functional, cell-based
# [11] = Inhibition of RANKL-induced C57BL/6 mouse bone marrow monocytes differentiation into osteoclasts at 0.1 uM after 6 days in presence of M-CSF by tartrate-resistant acid phosphatase staining based assay relative to control; type: functional; details: C57BL/6, Bone marrow monocyte, 144 h
# Mus musculus [12] = test: Protection against ovariectomized-induced osteoporosis in C57BL/6 mouse assessed as reduction in femur structure model index at 20 mg/kg, ip administered for 60 days by micro computed tomography; type: functional, organism-based
# [13] = Cytotoxicity against C57BL/6 mouse bone marrow monocytes assessed as reduction in cell viability at 20 uM after 72 hrs in presence of M-CSF by MTS assay; type: cell-based; details: bone marrow monocyte
# Bone marrow monocyte [14] = test: Inhibition of RANKL-induced CTR mRNA expression in C57BL/6 mouse bone marrow monocytes at 10 uM in presence of M-CSF by SYBR green-dye based qRT-PCR analysis; type: functional, cell-based; details: TDE = time-dependent effect
# Mus musculus [15] = species: Mus musculus; test: Inhibition of RANKL-induced IKK mediated IkappaBalpha degradation in mouse […] cells at 10 uM pretreated for 4 hrs followed by RANKL stimulation measured for 60 mins by Western blot method; type: cell-based
# Bone marrow monocyte [16] = test: Inhibition of RANKL-induced C-src mRNA expression in C57BL/6 mouse bone marrow monocytes at 10 uM in presence of M-CSF by SYBR green-dye based qRT-PCR analysis; type: functional, cell-based; details: TDE = time-dependent effect
# [17] = Cytotoxicity against C57BL/6 mouse bone marrow monocytes assessed as reduction in cell viability at 2 uM after 72 hrs in presence of M-CSF by MTS assay; type: cell-based; details: bone marrow monocyte
# Mus musculus [18] = test: Protection against ovariectomized-induced osteoporosis in C57BL/6 mouse assessed as reduction in trabecular separation of femur at 20 mg/kg, ip administered for 60 days by micro computed tomography; type: functional, organism-based
# Mus musculus [19] = test: Protection against ovariectomized-induced osteoporosis in C57BL/6 mouse assessed as increase in trabecular number of femur at 20 mg/kg, ip administered for 60 days by micro computed tomography; type: functional, organism-based
# Mus musculus [20] = test: Toxicity in ovariectomized C57BL/6 mouse assessed as effect on body weight at 5 to 20 mg/kg, ip administered for 60 days measured every 7 days during compound dosing; type: organism-based; details: in vivo
# Bone marrow monocyte [21] = test: Inhibition of RANKL-induced cathepsin K mRNA expression in C57BL/6 mouse bone marrow monocytes at 10 uM in presence of M-CSF by SYBR green-dye based qRT-PCR analysis; type: functional, cell-based; details: TDE = time-dependent effect
# Mus musculus [22] = species: Mus musculus; test: Inhibition of RANKL-induced JNK phosphorylation in mouse […] cells at 10 uM pretreated for 4 hrs followed by RANKL stimulation measured for 60 mins by Western blot method; type: cell-based
# Mus musculus [23] = test: Protection against ovariectomized-induced osteoporosis in C57BL/6 mouse assessed as increase in bone mineral density of femur at 20 mg/kg, ip administered for 60 days by micro computed tomography; type: functional, organism-based
# Mus musculus [24] = species: Mus musculus; test: Inhibition of RANKL-induced ERK phosphorylation in mouse […] cells at 10 uM pretreated for 4 hrs followed by RANKL stimulation measured for 60 mins by Western blot method; type: cell-based
# Bone marrow monocyte [25] = test: Inhibition of RANKL-induced NFATc1 mRNA expression in C57BL/6 mouse bone marrow monocytes at 10 uM in presence of M-CSF by SYBR green-dye based qRT-PCR analysis; type: functional, cell-based; details: TDE = time-dependent effect
# Mus musculus [26] = species: Mus musculus; test: Inhibition of RANKL-induced IKK-mediated NF-kappa-B p65 phosphorylation in mouse […] cells at 10 uM pretreated for 4 hrs followed by RANKL stimulation measured for 60 mins by Western blot method; type: cell-based
# Mus musculus [27] = test: Inhibition of ovariectomized-induced osteoclast activity in C57BL/6 mouse femur at 20 mg/kg, ip administered for 60 days by tartrate-resistant acid phosphatase staining method; type: functional, organism-based
# [28] = Effect on osteblast differentiation in mouse Mesenchymal stem cells at 2 to 10 uM measured after 7 days in presence of dexamethasone/b-glycerophosphate/Vitamin C by ALP staining assay; type: cell-based; details: mesenchymal stem cell, 168 h
# Bone marrow monocyte [29] = test: Inhibition of RANKL-induced TRAP mRNA expression in C57BL/6 mouse bone marrow monocytes at 10 uM in presence of M-CSF by SYBR green-dye based qRT-PCR analysis; type: functional, cell-based; details: TDE = time-dependent effect
# Mus musculus [30] = test: Anti-osteoporotic activity in ovariectomized-induced osteoporosis in C57BL/6 mouse assessed as increase in bone strength at 20 mg/kg, ip administered for 60 days by three point bending test; type: functional, organism-based
# Mus musculus [31] = test: Protection against ovariectomized-induced osteoporosis in C57BL/6 mouse assessed as increase in trabecular thickness of femur at 20 mg/kg, ip administered for 60 days by micro computed tomography; type: functional, organism-based
# [32] = Potency index, ratio of maslinic acid IC50 to compound IC50 for RANKL-induced C57BL/6 mouse bone marrow monocytes differentiation into osteoclasts; type: functional, Bone marrow monocyte
# Bone marrow monocyte [33] = test: Inhibition of RANKL-induced CTR mRNA expression in C57BL/6 mouse bone marrow monocytes measured after 5 days in presence of M-CSF by SYBR green-dye based qRT-PCR analysis; type: functional, cell-based
# Bone marrow monocyte [34] = test: Inhibition of RANKL-induced cathepsin K mRNA expression in C57BL/6 mouse bone marrow monocytes measured after 5 days in presence of M-CSF by SYBR green-dye based qRT-PCR analysis; type: functional, cell-based
# [35] = Cytotoxicity against C57BL/6 mouse bone marrow monocytes assessed as reduction in cell viability after 72 hrs in presence of M-CSF by MTS assay; type: cell-based; details: C57BL/6, Bone marrow monocyte
# [36] = Inhibition of RANKL-induced C57BL/6 mouse bone marrow monocytes differentiation into osteoclasts at 2 uM after 6 days in presence of M-CSF by tartrate-resistant acid phosphatase staining based assay relative to control; type: functional; details: C57BL/6, Bone marrow monocyte, 144 h
smiles,measurement,setting,value
CNC(=O)c1cc2c(cc1OC)[C@@]1(C)Cc3nc(C)oc3C(C)(C)[C@@H]1CC2,inhibition,[1],Active
same,IC50,[2],0.04 µM
same,inhibition,Bone marrow monocyte [3],Dose-dependent effect
same,inhibition,Bone marrow monocyte [4],Dose-dependent effect
same,inhibition,Mus musculus [5],inactive
same,inhibition,Bone marrow monocyte [6],Dose-dependent effect
same,Activity,Mus musculus [7],Active
same,inhibition at 0.5 µM,[8],92.7%
same,Ratio IC50,[9],2208
same,inhibition,Bone marrow monocyte [10],Dose-dependent effect
same,inhibition at 0.1 µM,[11],72.3%
same,Activity,Mus musculus [12],Active
same,Activity,[13],Toxic
same,inhibition,Bone marrow monocyte [14],Tde
same,inhibition,Mus musculus [15],Active
same,inhibition,Bone marrow monocyte [16],Tde
same,Activity,[17],Non-Toxic
same,Activity,Mus musculus [18],Active
same,Activity,Mus musculus [19],Active
same,Activity,Mus musculus [20],Non-Toxic
same,inhibition,Bone marrow monocyte [21],Tde
same,inhibition,Mus musculus [22],Active
same,Activity,Mus musculus [23],Active
same,inhibition,Mus musculus [24],Active
same,inhibition,Bone marrow monocyte [25],Tde
same,inhibition,Mus musculus [26],Active
same,inhibition,Mus musculus [27],Active
same,Activity,[28],Non-Toxic
same,inhibition,Bone marrow monocyte [29],Tde
same,Activity,Mus musculus [30],Active
same,Activity,Mus musculus [31],Active
same,Ratio IC50,[32],16
same,inhibition,Bone marrow monocyte [33],Dose-dependent effect
same,inhibition,Bone marrow monocyte [34],Dose-dependent effect
same,IC50,[35],88.3 µM
same,inhibition at 2 µM,[36],100%
